# Test results reported in PMC10889811, “Potential Candidate Molecule of Photosystem II Inhibitor Herbicide—Brassicanate A Sulfoxide” (International Journal of Molecular Sciences, 2024).
# Molecular target: T1, photosystem II D1 protein (PSBD1; psbA)
# T1 construct: gene psbA1; psbA cloned BamHI/HindIII into pFastBac1; expressed in Sf9 insect cells; His-tagged (kept, captured on NTA sensor), Ni column from sonicated pellet supernatant; recombinant plasmid printed as 5238 bp, small for a full-length psbA insert; isolated D1 without other PSII subunits or cofactors; PDB 7ZCL is the docking model only
# Assay: biolayer interferometry (Octet R8, NTA sensor)
# Type: binding
# Settings: PBS, 5% DMSO; analyte 1 mM; His-tagged protein immobilised on NTA sensor; read-out: affinity constant
smiles,measurement,value
COC(=O)c1c([S+](C)[O-])[nH]c2ccccc12 (stereo not shown) [brassicanate A sulfoxide],Kd,2690 µM
